No end group written: not given here.
How the values were obtained:
CRAB 2210186 [1] = assay: Thigh infection mouse model; format: in vivo, BALB/c mice; conditions: neutropenic mice, ~1 × 10^6 CFU in thigh, i.p. at 1, 3, 5, 7 h post-infection (PL-15 10 × MIC, 100 µL; polymyxin B 20,000–25,000 U kg^−1 day^−1), n = 8
Text: The WHO has classified CRAB as a “Critical Priority” pathogen in its Priority Pathogens List, recognizing it as a predominant causative agent of hospital-acquired infections ([2]). This classification reflects CRAB’s global dissemination, high mortality rates, and extreme resistance profiles. Given this critical situation, a thigh infection model was employed to evaluate the in vivo therapeutic efficacy of PL-15 against CRAB. To establish the mouse thigh infection model, mice were pre-treated intraperitoneally with cyclophosphamide 4 days and 1 day prior to bacterial inoculation to induce neutropenia, administered at doses of 150 mg kg^−1 and 100 mg kg^−1, respectively ([51]). Each mouse was then injected with approximately 10^6 colony-forming unit (CFU) of CRAB in the thigh tissue, followed by four intraperitoneal injections of PL-15, polymyxin B, or phosphate-buffered saline (PBS) within 24 h of infection (Fig. 3a).
All animal experiments were performed according to the “Principles of Laboratory Animal Care” (NIH publication No. 86-23, revised 1985) and approved by the Animal Care and Use Committee of Shandong University (LL20240622, Jinan, China). Five-week-old male BALB/c mice were purchased from Beijing Vital River Laboratory Animal Technology Co., Ltd. (Beijing, China) and kept under a 12-hour light/12-hour dark cycle, humidity of 50%, and temperature of 22°C in standard specific pathogen-free individually vented cages.
To establish the mouse thigh infection model, mice were injected intraperitoneally with cyclophosphamide 4 d and 1 d before bacterial administration, at concentrations of 150 and 100 mg kg^−1, respectively, to induce neutropenia ([51]). CRAB 2210186 cells were suspended in sterile PBS, adjusted to a concentration of ~1 × 10^6 CFU per infection site and injected into the right thighs of eight mice per treatment group. PL-15 (10 × MIC, 100 µL), polymyxin B (20,000–25,000 U kg^−1 day^−1) or PBS were administered intraperitoneally at 1, 3, 5, and 7 h post-infection. Mice were euthanized 24 h after infection, and the thigh tissues were aseptically collected, weighed, homogenized, serially diluted in PBS, and plated onto solid MCA. The CFU of CRAB 2210186 per thigh was calculated by plating dilutions of the thigh homogenates (0.25 g of thigh tissue in 10 mL sterile PBS) on agar plates and counting colonies.

CRPA 2403282 = format: cell-based, carbapenem-resistant P. aeruginosa
Description: (§1) The MIC of all peptides was determined using the microdilution broth method in a 96-well plate. Peptides were dissolved in the DMSO with an initial concentration of 12,800 µg mL^−1. And cells of eight strains were separately suspended in the MHB at a density of approximately 10^5 CFU mL^−1. In the first column of the 96-well plate, 16 µL of peptide and 184 µL of MHB were added to each well to achieve a final concentration of 1,024 µg mL^−1. One-hundred microliters of MHB was added to each of the remaining wells. Then the first column of liquid was mixed well and diluted to the 12th column using the twofold dilution method. One-hundred microliters of prepared bacterial solution was added to all wells, and the 96-well plate was incubated at 37°C for 18–24 h. The MIC was defined as the concentration of the peptide in the well just preceding the first well showing visible turbidity. All experiments were performed in triplicate to ensure reliability.

CRAB [2] = assay: Time-kill curve; format: cell-based, carbapenem-resistant Acinetobacter baumannii; conditions: ~10^5 CFU mL^−1 in MH broth
Description: Bacteria in the logarithmic growth phase were diluted to approximately 10^5 CFU mL^−1 in MH broth and treated with peptides, polymyxin B, or vancomycin at final concentrations of 1/2 × MIC, 1 × MIC, 2 × MIC, and 4 × MIC. After the addition of the test compound, samples were taken at 0, 3, 6, 9, 12, and 24 h and serially diluted. Subsequently, 5 µL of the diluted samples were spread on agar plates and incubated at 37°C for 20 h. The bacterial concentration CFU mL^−1 at the corresponding time point of each sample was calculated based on the number of colonies on the agar plate, and the log10 (CFU mL^−1) was plotted against time (h).

CRKP 2403276 = format: cell-based, carbapenem-resistant K. pneumoniae
Description: as §1

CRAB [3] = assay: PI assay, cytoplasmic membrane integrity; format: cell-based, carbapenem-resistant Acinetobacter baumannii; conditions: 1 × MIC, 10^8 CFU mL^−1
Description: PI (which is known to stain nuclear chromatin upon cell membrane disruption) assay was carried out to evaluate the ability of AMPs to disrupt the cytoplasmic membrane integrity ([63]). After CRAB was grown to the exponential phase, bacteria cells were harvested and washed three times in washing buffer of 5 mM glucose and 5 mM HEPES (1:1, pH = 7.2) and then re-adjusted to 10^8 CFU mL^−1 in the same buffer. Bacterial suspensions (150 µL/well) were loaded into black-walled, clear-bottom 96-well plates with lids. Following bacterial loading, 50 µL of 10 µM PI was introduced into each well, with 30 min pre-incubation CRAB. Post-incubation fluorescence signals were acquired using 535 nm excitation and 617 nm emission wavelengths. Compounds (10 µL) were then administered to achieve 1 × MIC/10 × MIC-equivalent final concentrations in the dye-loaded bacterial suspensions. Real-time fluorescence monitoring was performed with continuous acquisition during the first 10 min, followed by measurements at 10-min intervals. Negative controls received 10 µL sterile water in lieu of antimicrobial peptides while maintaining equivalent pre-incubation conditions. All experimental conditions were executed with three biological replicates.

CRAB 2210186 [4] = format: cell-based, carbapenem-resistant Acinetobacter baumannii
Description: as §1

A. baumannii ATCC19606 = format: cell-based, Acinetobacter baumannii
Description: as §1

WLKRILKWIGNKLKW [PL-15]
reduction of bacterial load compared to the PBS control group (CRAB 2210186 [1]; 24 h): two orders of magnitude | bacteria eradicated in the thigh tissue within 24 h (CRAB 2210186 [1]): over 97% | MIC (CRPA 2403282): 64 mg/L | time to kill CRAB (CRAB [2]; 1/2 × MIC): ≤ 6 h | time to kill CRAB (CRAB [2]; 1 × MIC): ≤ 6 h | time to complete bacterial eradication of CRAB (CRAB [2]; 2 × MIC): ≤ 3 h | time to kill CRAB (CRAB [2]; 4 × MIC): ≤ 3 h | MIC (CRKP 2403276): lower than 11 µg mL^−1 | PI fluorescence (cytoplasmic membrane integrity) (CRAB [3]): stronger fluorescence signal compared to polymyxin B and control | MIC (CRAB 2210186 [4]): 4 mg/L | MIC (A. baumannii ATCC19606): lower than 11 µg mL^−1

Reference: paper PMC12502564, “Evaluation of LLM-generated peptide as foundation template for discovery of effective encrypted AMPs against clinical superbugs” (Microbiology Spectrum, 2025)
